Results taken from patent US9670259B2, “Method of inhibiting angiogenesis using inhibitors of G-protein-coupled receptor kinase interacting protein-1 (GIT1)” (University of Rochester, priority 2013, dated 2017).

Key:
Type in all cases: cell-based, human
Hey1 = Hey1 mRNA (qRT-PCR) and protein (western blot) after GIT1 depletion with siRNA in HUVECs; settings: compared to control siRNA
Method: (§1) Human umbilical vein endothelial cells (HUVECs) were isolated and grown in Medium 200 with low serum growth supplement (Cascade Biologics, Inc., Portland, Oreg.) as described previously (Carmeliet et al., Nature 436:193 (2005), which is hereby incorporated by reference in its entirety). GIT1 siRNA ([…]) (SEQ ID NO: 21) and control non-silencing siRNA([…]) (SEQ ID NO: 22) were designed and synthesized (Ambion) and Dll4 siRNA was purchased (Santa Cruz). The siRNA were transfected at 100 nM for 48 h as previously described by our laboratory (Yin et al., Mol. Cell Biol., 24:875 (2004), which is hereby incorporated by reference in its entirety). […]
(§2) For immunoblotting, cells were lysed in RIPA buffer (150 mM NaCl, 1% Nonidet P-40, […], 0.1% SDS, 50 mM Tris-HCl, pH 8.0). Protein concentrations in the lysates were determined. […] After incubating with fluorescence-conjugated secondary antibodies, immunoreactive proteins were visualized by an Odyssey infrared imaging system (LI-COR Biotechnology, Nebraska). […]
(§3) Total RNA from retinas and lungs of GIT1 WT and KO mice or HUVECs was obtained using TRIzol reagent (Invitrogen) according to the manufacturer's protocol. […] Target genes mRNA expression and mitochondrial DNA content were determined by qRT-PCR (Applied Biosystems). […]

Notch1 = Notch1 expression and cleavage (N1-ICD) after GIT1 depletion with siRNA in HUVECs; settings: siRNA treated
Method: Human umbilical vein endothelial cells (HUVECs) were isolated and grown in Medium 200 with low serum growth supplement (Cascade Biologics, Inc., Portland, Oreg.) as described previously (Carmeliet et al., Nature 436:193 (2005), which is hereby incorporated by reference in its entirety). GIT1 siRNA ([…]) (SEQ ID NO: 21) and control non-silencing siRNA([…]) (SEQ ID NO: 22) were designed and synthesized (Ambion) and Dll4 siRNA was purchased (Santa Cruz). The siRNA were transfected at 100 nM for 48 h as previously described by our laboratory (Yin et al., Mol. Cell Biol., 24:875 (2004), which is hereby incorporated by reference in its entirety). HEK293 cells were cultured in Dulbecco's modified Eagle's medium supplemented with 10% fetal bovine serum (FBS), penicillin, and streptomycin at 37° C. in 5% CO2. HEK293T cells were transfected by Lipofectamine/plus (Invitrogen).
For immunoblotting, cells were lysed in RIPA buffer (150 mM NaCl, 1% Nonidet P-40, […], 0.1% SDS, 50 mM Tris-HCl, pH 8.0). Protein concentrations in the lysates were determined. The protein samples were separated by SDS-PAGE, transferred to nitrocellulose membranes, and incubated with appropriate primary antibodies. After incubating with fluorescence-conjugated secondary antibodies, immunoreactive proteins were visualized by an Odyssey infrared imaging system (LI-COR Biotechnology, Nebraska). […]

Dll4 = Dll4 mRNA (qRT-PCR) and protein (western blot) after GIT1 depletion with siRNA in HUVECs; settings: siRNA 48 h, compared to control siRNA
Method: as §1, §2, §3

HUVEC = HUVEC tube formation on matrigel after SHD overexpression; settings: HUVECs with VEGF on growth factor reduced matrigel, 16 hours, compared to control
Method: In addition to PLCγ signaling, the effect of SHD overexpression on HUVEC tube formation in vitro was also assessed. Endothelial cells reorganize themselves in a 3D matrix like matrigel and form tubes which is an index of in vitro angiogenesis. After 48 hours, cells were cultured at a constant number (10^4 cells/well) with VEGF on growth factor reduced matrigel (30 uL) coated 96 well plate and incubated for 16 hours.

ERK1/2 = experiment: VEGF induced ERK1/2 activation in HUVEC infected with SHD-Flag lentivirus; settings: lentivirus overexpression, VEGF 10 ng/mL
Method: (§4) In an effort to identify the potential GIT1 inhibitor peptides, a flag-tagged SHD domain of GIT1 (SHD-Flag) was cloned into a lentivirus vector.
(§5) HUVECs were seeded on 6 well plate at 80% confluence. The next day, cells were infected with control and SHD-Flag containing Lentivirus with Polybrene. After 1 day, infection media was changed with fresh complete M200 media (containing 5% FBS+1% Penicillin-Streptomycin and 2% LSGS). After 48 hours, cells were serum starved with serum free M200 media for 1 hour and stimulated with VEGF (10 ng/mL) for different time points ranging from 0 to 30 minutes. Next cells were lysed and used for western blot analysis to measure PLCγ and ERK1/2 activation. […] No effect of SHD overexpression on VEGF induced ERK1/2 activation was observed. Flag tagged SHD expression in HUVECs were confirmed by detecting Flag in the lysate

PLCγ = experiment: VEGF induced PLCγ activation in HUVEC infected with SHD-Flag lentivirus; settings: lentivirus overexpression, VEGF 10 ng/mL
Method: as §4, §5

Molecule	increase of Hey1 mRNA expression (Hey1) [fold]	increase of Hey1 protein expression (Hey1) [fold]	Notch1 expression (Notch1)	enhancement of expression of N1-ICD (Notch1; normalized to total Notch1) [fold]	increase of Dll4 mRNA expression (Dll4) [fold]	increase of Dll4 protein expression (Dll4) [fold]	formation of tube-like structures (HUVEC)	VEGF induced ERK1/2 activation (ERK1/2)	VEGF induced PLCγ activation (PLCγ)
GIT1 siRNA: siRNA AAGCTGCCAAGAAGAAGCTAC (SEQ ID NO: 21), synthesized (Ambion) (listed as DNA, chemistry not given here)	5.2±0.57	3.0±0.3	no change	1.7±0.4	3.2±0.6	6.3±0.3	–	–	–
SHD-Flag: flag-tagged SHD domain of GIT1 (residues 250-420 of SEQ ID NO: 1) cloned into a lentivirus vector (protein, listed as Homo sapiens, Flag tag; lentivirus vector) QMADSLDLSELAKAAKKKLQALSNRLFEELAMDVYDEVDRRENDAVWLATQNHSTLVTERSAVPFLPVNPEYSATRNQGRQKLARFNAREFATLIIDILSEAKRRQQGKSLSSPTDNLELSLRSQSDLDDQHDYDSVASDEDTDQEPLRSTGATRSNRARSMDSSDLSDGA	–	–	–	–	–	–	inhibited the formation of tube-like structures	No effect	blocked VEGF induced PLCγ activation
